# Assay results reported in patent US12226410B2, “Methods for enhancing cellular clearance of pathological molecules via activation of the cellular protein ykt6” (NORTHWESTERN UNIVERSITY, priority 2019, dated 2025).
# How the values were obtained:
# GCase = assay: FTI treatment of wild-type mice: GCase maturation and activity in cortex; type: in vivo; details: daily i.p. 0.9 mg/kg, 14 days
# Procedure: (§1) FIGS. 15A, 15B, 15C, 15D, 15E, and 15F. FTI treatment of wild-type mice enhances ykt6 SNARE complexes, lysosomal activity, and reduces a-syn. 15A) Wild-type mice (C57Bl/6) were i.p. injected daily with FTI for 14 days at 0.9 mg/kg and compared to vehicle injected mice. Extracts from the cortex were analyzed for cytosolic (cyt) and membrane (mem) distribution of ykt6 (veh, n=5; FTI, n=6). 15B) Representative gel filtration/western blot analysis of cortical extracts of veh or FTI injected wild-type mice. Inputs are shown on the left. NSE indicates equal column loading. 15C) Quantification of ykt6 and STX5 complexes (ca. 120A) from gel filtration analysis in C (n=4 mice). Fraction 1 corresponds to complexes at 120A, while fractions 7-9 correspond to ykt6 monomers at 22-14 A. 15D) The levels of post ER (endo H resistant) GCase were analyzed by western blot and post ER/ER ratios were quantified from the cortex of FTI treated mice (veh, n=5; FTI, n=6). 15E) GCase activity was assessed in cortical lysates and normalized to total protein (veh, n=4; FTI, n=6). 15F) a-Syn levels were quantified from cytosolic or membrane isolated fractions from the cortex of wild-type FTI treated mice (veh, n=4; FTI, n=6). For all quantifications, values are the mean+/−SEM, *p<0.05.
# Analysis of post-ER GCase. […]
# ykt6 = assay: FTI treatment of wild-type mice: ykt6 membrane distribution and SNARE complexes in cortex; type: in vivo; details: daily i.p. 0.9 mg/kg, 14 days
# Procedure: as §1
# Separation of lysates into cytosol and membrane fractions. Cell cultures from either a 10 cm dish (SH-SY5Y) or 6 well (iPSn) were scraped in cold PBS and pelleted by centrifugation at 400×g, 5 min, 4° C. The supernatant was discarded and cell pellets were homogenized in 200-400 ul of cold PBS containing protease inhibitor cocktail mix (1 mM phenylmethanesulfonyl fluoride (PMSF), 50 mM NaF, 2 mM Na orthovanadate, and a protease inhibitor cocktail (Roche diagnostics, http://www.roche.com, #11-836-170-001)) using a Teflon homogenizer in a conical glass vessel for 20-40 times, using a motor driven spindle at 4000 rpm (GlasCol, https://glascol.com/homogenizers). […] Fractions were then analyzed by western blot analysis as described below. The samples were not analyzed in a blinded manner. […]
smiles,measurement,setting,value
C#Cc1cccc(-c2cc(=O)n(C)c3ccc([C@](O)(c4ccc(Cl)cc4)c4cncn4C)cc23)c1 [LNK-754],"mature, endo H resistant GCase in brain",GCase; cortex,elevated levels
same,GCase enzyme activity in brain,GCase; cortical lysates,higher enzyme activity
same,levels of membrane associated ykt6 and STX5,ykt6,increase the levels of membrane associated ykt6 and STX5
same,sec22b,ykt6,no change
same,ykt6 distribution by SEC (monomers vs complexes),ykt6,shifted its distribution from monomers into high molecular weight complexes
